Read-outs that look alike come from different tables or passages of the source.
Legend:
[1] = tested on: recombinant luciferase-expressing CMV (Towne); experiment: microbe, parasite or virus in culture; assay type: cell-based, human CMV; settings: for Selectivity index (SI): ratio between CC50 and EC50
Procedure: (§1) Human Foreskin Fibroblasts (HFF) passage 12–16 and human lung fibroblasts (HEL) passage 8–12 (from ATCC) were maintained in DMEM containing 10% fetal bovine serum and used for infections with the viruses.
The CMV strains used for infections were the highly-passaged Towne virus, and a clinical isolate obtained from the urine of a neonate with congenital CMV infection (SB) and passaged once in tissue culture. […] Initial experiments were performed using a recombinant human CMV-green fluorescent protein (GFP) virus, derived from Towne strain. This virus has a 9-kb deletion from the dispensable unique short (US) region from US1 to US12, and instead contains the bacterial artificial chromosome sequences and a GFP expression cassette. […] A recombinant virus expressing luciferase reporter gene under the control of UL99 (pp28) late promoter was generated by insertion of the reporter gene between the US9 and US10 ORFs in the Towne genome.
Towne-GFP, Towne–luciferase, and SB viruses were used in these assays. HFF or HEL were grown to subconfluent monolayers and infected with the CMV viruses at MOI 0.1 to 3. […] The concentration of each compound was calculated and adjusted by volume such that it was constant throughout the experiment. Following 90 minute incubation, media was replaced with fresh media containing the drug used. Infected and treated cells were incubated at 37°C in a 5% CO2 atmosphere for 3–10 days depending on the virus and the anti-viral assay. The recombinant luciferase-expressing virus was incubated for 72 hours, the GFP virus was incubated for 5 days, and the clinical isolate for 10 days. All experiments were subsequently repeated with compounds added to wells just after viral inoculation.

[2] = Cellular cytotoxicity, CellTiter-Glo Luminescent Cell Viability Assay; assay type: cell-based; settings: human
Procedure: as §1, with “viruses. Cells in concentrations of 5×10^4 and 1×10^4 were seeded 24 hours prior to infection on each well of 24-and 96-well plates respectively.” for “viruses.”

Toxoplasmosis = experiment: Anti-toxoplasmosis activity of compounds in supernatants of CMV infected cells; assay type: cell-based, Toxoplasma gondii; settings: Human betaherpesvirus 5; supernatants of CMV infected cells at 3–5 days post infection
Source text: To confirm that the difference in anti-CMV activity between monomers and dimers was not a result of instability of the monomers in tissue culture, we determined the anti-toxoplasmosis activity of these compounds in the supernatants of CMV infected cells at 3–5 days post infection.

[3] = tested on: CMV IE1 protein expression; experiment: Western blot for CMV immediate early protein IE1; assay type: cell-based, human CMV; settings: for expression of IE1 and GFP: 100 µM, Towne-GFP, HFF, day 5 post infection; for IE1 expression: SB clinical isolate
Procedure: Monoclonal antibodies to CMV immediate early proteins IE-1 and IE-2 (MAb810) and to cellular β-actin were purchased from Millipore (Billerica, MA). Confluent cells were infected with CMV in the presence of artemisinin compounds. At the indicated times cells were harvested in sample buffer (RIPA buffer, Tris 50 mM, Nacl 150 mM, SDS 0.1%, Na Deoxycholate 0.5%, NP40 1%, and protease inhibitor cocktail), boiled and loaded onto SDS-PAGE. Proteins were separated by electrophoresis and transferred to nitrocellulose membrane. After blocking, blots were probed with primary antibody (1∶3,000) overnight at 4°C in phosphate-buffered saline, and Tween. After washing 3 times, blots were probed with HRP-conjugated anti-mouse (Sigma), 1∶5,000 for 1 hour at room temperature. Blots were washed three times in phosphate-buffered saline/Tween, and then developed by enhanced chemiluminescence according to manufacturer protocol.
The expression of CMV immediate early (IE) protein was tested by western blot to determine whether artemisinins' inhibition of CMV replication occurs early in the virus life cycle. […] Further evidence for the early effect of artemisinins on IE1 protein expression was obtained with the clinical isolate (SB, Fig. 5b).
Western blot for IE1 and GFP performed at day 5 post infection. […] Western blot for IE1 was performed at 12 hr (MOI = 3), 24 hr and 48 hr (MOI = 1) post infection.

CMV clinical isolates = tested on: CMV clinical isolates; design: method as in PMID 11976732; settings: 11.1 µM ref 19; cited from earlier work
[4] = tested on: recombinant luciferase-expressing CMV; experiment: Plaque reduction assay in human embryonic lung cells; assay type: cell-based, human CMV; settings: 10 µM; HEL cells; luciferase virus; 10 days
Procedure: For plaque reduction assay, human embryonic lung cells were seeded into six-well plates and incubated at 37°C one day prior to infection with the recombinant luciferase-expressing CMV. Serial dilutions of GCV, artesunate and artefanilide were used. The virus was diluted to a desired concentration which gave 50–60 plaques per well. Medium was aspirated from the wells, and 0.2 ml of virus suspension was added to each well in triplicates. Plates were incubated for 90 minutes with shaking every 10 min, thereafter drugs were added and a methylcellulose overlay applied to each well. After incubation for 10 days, cells were stained with crystal violet. The stain was aspirated, wells were washed with phosphate-buffered saline, and plaques were counted.

[5] = Human betaherpesvirus 5, read-out: EC50 (µM) - CMV
[6] = drug concentration that leads to 50% cellular cytotoxicity, mean and SD, at least five independent experiments, read-out: CC50

Row | SMILES | EC50 ([1]; Human betaherpesvirus 5, 72 h) | Selectivity index (SI) [1] | CC50 [2] | EC50 [1, 5] | EC50 (Toxoplasmosis) | CC50 [2, 6] | expression of IE1 and GFP ([3]; MOI of 0.1) | expression of IE1 and GFP ([3]; MOI of 0.5) | in-vitro inhibition of clinical isolates (CMV clinical isolates) | IE1 expression ([3]; 1 µM, MOI = 1, 24 and 48 hr) | IE1 expression ([3]; 1 µM, MOI = 3, 12 hours post infection) | selectivity relative to GCV ([1]; comparison of SI, Table 1) | reduction in plaque formation [4] | IE1 expression ([3]; 10 µM, MOI = 1, 24 and 48 hr)
1 | C[C@H]1[C@@H](CCC(=O)Nc2ccc(F)cc2)O[C@@H]2O[C@@]3(C)CC[C@H]4[C@H](C)CC[C@@H]1[C@@]24OO3 [Artefanilide (3), artefanilide] | 8.1 ± 2.2 µM | 5.5±1.6 | 44.9 ± 3.4 µM | – | – | – | – | – | – | – | – | – | – | –
2 | CO[C@H]1O[C@@H]2O[C@@]3(C)CC[C@H]4[C@H](C)CC[C@@H]([C@H]1C)[C@@]24OO3 [Artemether (2c), artemether] | 5.3 ± 2.7 µM | 3.5±2.2 | 18.4 ± 7.5 µM | 5.1 ± 2.1 µM | 0.58 ± 0.22 µM | – | – | – | – | – | – | – | – | –
3 | C[C@@H]1CC[C@H]2[C@@H](C)C(=O)O[C@@H]3O[C@@]4(C)CC[C@@H]1[C@]32OO4 [Artemisinin (1), artemisinin] | 16.8 ± 4 µM | – | – | 15.7 ± 4.5 µM | 4.1 ± 1.1 µM | 72.4 ± 15.7 µM | undetectable | decreased | – | – | – | – | – | –
4 | C[C@H]1[C@H](OC(=O)CCC(=O)O)O[C@@H]2O[C@@]3(C)CC[C@H]4[C@H](C)CC[C@@H]1[C@@]24OO3 [Artesunate (2d), artesunate] | 18.5 ± 5.2 µM | 4.2±2.2 | – | 17.2 ± 3.4 µM | 3.2 ± 0.8 µM | 77.5 ± 14.4 µM | – | – | 50–80% | – | – | – | – | –
5 | C[C@H]1[C@@H](CC(CO)C[C@H]2O[C@@H]3O[C@@]4(C)CC[C@H]5[C@H](C)CC[C@@H]([C@H]2C)[C@@]35OO4)O[C@@H]2O[C@@]3(C)CC[C@H]4[C@H](C)CC[C@@H]1[C@@]24OO3 (some centres unmarked) [Dimer primary alcohol (4), dimer primary alcohol] | 0.15 ± 0.02 µM | 380±53 | 57 ± 2.3 µM | 0.16 ± 0.04 µM | 0.4 ± 0.15 µM | – | – | – | – | significantly reduced | inhibition of IE1 expression | – | – | –
6 | C[C@H]1[C@@H](CC(C[C@H]2O[C@@H]3O[C@@]4(C)CC[C@H]5[C@H](C)CC[C@@H]([C@H]2C)[C@@]35OO4)CS(=O)(=O)c2ccc(COC(=O)N(C)C)cc2)O[C@@H]2O[C@@]3(C)CC[C@H]4[C@H](C)CC[C@@H]1[C@@]24OO3 (some centres unmarked) [Dimer sulfone carbamate (6), dimer sulfone dimethyl carbamate] | 0.06 µM | 508±173 | 28.1 ± 9.6 µM | – | – | – | – | – | – | – | – | approximately 10 times | – | –
7 | Nc1nc(O)c2ncn(COC(CO)CO)c2n1 [GCV, Ganciclovir] | 5.6 ± 0.2 µM | – | – | – | – | 247 ± 33.4 µM | – | – | – | – | – | – | 80% | not affected
